One assay addresses T1, full-length HAQ STING (Homo sapiens, UniProt Q86WV6, G230A/H232R/R293Q/R71H).
T1 construct: made in house; host or cells: Trichoplusia ni (Hi-Five) insect cells, baculovirus generated in Sf21; crude membranes
As to the kind of experiment: 3H-cGAMP filtration binding assay (HAQ STING). To be noted: competition with tritiated cGAMP ligand; T. ni cell membranes overexpressing full-length HAQ STING. The text has this:
The ability of compounds to bind STING is quantified by the ability to compete with tritiated cGAMP ligand for human STING receptor membrane using a radioactive filter-binding assay. The binding assay employs STING receptor obtained from Hi-Five cell membranes overexpressing full-length HAQ STING prepared in-house and tritiated cGAMP ligand also purified in-house.
The ability of compounds to bind STING is quantified by their ability to compete with tritiated cGAMP ligand for human STING receptor membrane using a radioactive filter-binding assay. The binding assay employs STING receptor obtained from Trichoplusia ni cell membranes (T. ni; Expression Systems, cat #94-002F, www.expressionsystems.com) overexpressing full-length HAQ STING and tritiated cGAMP ligand.
The basic HAQ STING filtration assay protocol is as follows:
The compounds were serially titrated by the Hamilton STARPlus CORE in a 96-well plate (Greiner, #651201) using a 1:3 ten-point dose response format. […] 148 uL of prepared membrane was then manually added to each well of a 96-well deep-well polypropylene plate (Fisher Scientific, #12-566-121). Following membrane addition, 2 uL of either titrated test compound, DMSO control (Sigma #276855), or cold cGAMP control was added to the appropriate wells using a BIOMEK FX. Compound and membrane then preincubated for 60 min at RT to allow compound binding to equilibrate. Following equilibration, 8 nM of [^3H] c-GAMP ligand was prepared by diluting into assay buffer, and 50 uL of this working stock was then manually added to each well of the assay plate. Plates were then incubated at RT for 60 min, and the contents of each assay plate were then filtered through a 96-well GF/B filter plate (PerkinElmer, #6005250) using a TOMTEC MACH III Cell Harvester equipped with 20 mM HEPES buffer (Fisher Scientific, #BP299500). The filter plates were then dried at 55° C. for 30 min using a pressurized oven before 30 uL of ULTIMA GOLD F scintillate was added to each well. Tritium levels for each reaction well were then measured using a PerkinElmer TopCount plate reader.
After normalization to controls, the percent activity for each compound concentration was calculated by measuring the amount of remaining radioactivity. The plot of percent activity versus the log of compound concentration was fit with a 4-parameter dose response equation to calculate EC50 values.

Assay [1] has as its system IFN-β secretion from THP1 cells. In words: IFN-β secretion in THP1 cell culture (5 h). It counts as cell-based, human. The note with it: for activation at 30 µM: Homo sapiens, read-out: % Effect at 30 μM relative to 2′3′-cGAMP. As to the method: The ability of compounds to stimulate the secretion of interferon-beta from THP1 cells was measured using a human IFN-β AlphaLISA kit (Perkin Elmer, Cat. No. AL265F). The basic protocol is as follows:
The cell viability and count was ascertained using a Beckman Coulter V-Cell XR cell counter. The cell suspension was centrifuged at 200×g for 5 min at RT. Cells were resuspended to a density of 0.8×10^6/mL in 37° C. assay medium. Subsequent liquid transfers were performed using either a Matrix electronic multichannel pipette or an Agilent Bravo Automated Liquid Handling Platform.
The assay was started by dispensing 40 μL of the previously prepared cell suspension into the wells of the plate containing compounds. After 5 h incubation at 37° C., 5% CO2 in a humidified atmosphere, the plate of cells and compounds was centrifuged at 200×g for 5 min at RT. […] To these supernatant-containing wells was added 10 μL of 5× Anti-Analyte Acceptor beads (50 μg/mL of AlphaLISA HiBlock Buffer) and incubated for 30 min at RT while shaking on an orbital plate shaker. To each well was added 10 μL of 5× Biotinylated Antibody Anti-analyte (5 nM in AlphaLISA HiBlock Buffer) and incubated on an orbital plate shaker for 60 min at RT or overnight at 4° C. To each well was added 25 μL of 2× SA-Donor beads (80 μg/mL in AlphaLISA HiBlock Buffer) and incubated for 30-45 min at RT in the dark while shaking on an orbital plate shaker. The plate was then read on a Perkin Elmer Envision (λex680 nm, λem=570 nm). The percent effect of the AlphaLISA signal at each compound concentration was calculated based on 30 uM cGAMP positive controls and 0.3% DMSO negative controls. The plot of percent effect versus the log of compound concentration was fit with a 4-parameter concentration response equation to calculate EC50 values.
Compounds of the disclosure were evaluated for IFN-β secretion in THP1 cell culture as described above.

The mark [2] stands for this setting: THP-1, 5 h, THP1 cells, 5 h incubation, compound at 30 μM, 30 uM cGAMP = 100%.
[3] abbreviates: THP1 cells, 5 h incubation, compound at 30 μM, 30 uM cGAMP = 100%.

Like-named read-outs stand apart in the source and are kept apart here.

Broadly, the EC50 is the midpoint of the concentration-response curve. Low readings indicate greater potency, high ones weaker potency.

T1 sequence (Q86WV6 with tags, fused parts or gaps R71H/G230A/H232R/R293Q): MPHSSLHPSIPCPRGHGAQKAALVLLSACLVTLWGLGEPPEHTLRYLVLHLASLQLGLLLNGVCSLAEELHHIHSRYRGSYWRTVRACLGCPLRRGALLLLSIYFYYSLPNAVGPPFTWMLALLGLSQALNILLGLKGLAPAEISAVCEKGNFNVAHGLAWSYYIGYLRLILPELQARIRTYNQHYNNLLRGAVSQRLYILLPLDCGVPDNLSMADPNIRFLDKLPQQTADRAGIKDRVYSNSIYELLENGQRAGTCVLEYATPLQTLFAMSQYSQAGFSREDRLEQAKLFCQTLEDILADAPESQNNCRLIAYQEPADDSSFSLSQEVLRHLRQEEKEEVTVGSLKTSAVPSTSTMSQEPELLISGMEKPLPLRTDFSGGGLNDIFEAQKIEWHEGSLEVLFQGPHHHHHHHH

Compound `Nc1ncnc2c1ncn2[C@@H]1O[C@@]23CO[C@@H]1[C@@H]2OP(=O)(S)OC[C@H]1O[C@@H](n2ccc(=O)n4ccnc24)[C@H](OP(=O)(S)OC3)[C@@H]1O` (stereo partly drawn) [Example 6, 8-[(5R,7R,8R,12aR,14R,15R,15aS,18R)-14-(6-amino-9H-purin-9-yl)-18-hydroxy-2,10-dioxido-2,10-disulfanylhexahydro-14H-15,12a-(epoxymethano)-5,8-methanofuro[3,2-l] [1,3,6,9,11,2,10]pentaoxadiphosphacyclotetradecin-7(12H)-yl]imidazo[1,2-a]pyrimidin-5(8H)-one] returned an EC50 at full-length HAQ STING of 28 nM. In addition, in assay [1] (setting [2]), the activation at 30 µM came to 145%.
The corresponding values for `Nc1ncnn2c([C@H]3C[C@@H]4O[P@](=O)(S)OC[C@H]5O[C@@H](n6ccc(=O)n7ccnc67)[C@H](O[P@](=O)(S)OC[C@H]4O3)[C@@H]5O)cnc12` (single isomer, unassigned) [Example 8] are 23 nM and 128%.
Compound `Nc1ncnn2c([C@H]3C[C@@H]4O[P@@](=O)(S)OC[C@H]5O[C@@H](n6ccc(=O)n7ccnc67)[C@H](O[P@](=O)(S)OC[C@H]4O3)[C@@H]5O)cnc12` [Example 7, 8-[(2S,5R,7R,8R,10R,12aR,14R,15aS,16R)-14-(4-aminoimidazo[2,1-f][1,2,4]triazin-7-yl)-16-hydroxy-2,10-dioxido-2,10-disulfanyl-octahydro-12H-5,8-methanofuro[3,2-l][1,3,6,9,11,2,10]pentaoxadiphosphacyclotetradecin-7-yl]imidazo [1,2-a]pyrimidin-5(8H)-one] gave a concentration giving a half-maximal response (EC50) on full-length HAQ STING of 2 nM. Moreover, the activation at 30 µM in assay [1] (setting [2]) amounted to 140%.
With `Nc1nc2c(ncn2[C@@H]2S[C@@H]3COP(=O)(S)O[C@H]4[C@H](F)[C@H](n5ccc6c(=O)[nH]cnc65)O[C@@H]4COP(=O)(S)O[C@@H]2C3)c(=O)[nH]1` (stereo partly drawn) [Example 44, 2-amino-9-[(5S,7R,8R,12aR,14R,15S,15aR)-15-fluoro-2,10-dioxido-14-(4-oxo-3,4-dihydro-7H-pyrrolo[2,3-d]pyrimidin-7-yl)-2,10-disulfanyl-octahydro-12H-5,8-methanofuro[3,2-l] [1,3,9,11,6,2,10]tetraoxathiadiphosphacyclotetradecin-7-yl]-1,9-dihydro-6H-purin-6-one], on full-length HAQ STING, a half-maximal response (EC50) required 1 nM. Also, in assay [1] (setting [2]), the activation at 30 µM was determined as 164%.
Compound `Nc1ncnc2c1ncn2[C@@H]1S[C@@H]2CO[P@@](=O)(S)O[C@@H]3[C@H](O)[C@@H](CO[P@](=O)(S)O[C@H]2[C@H]1O)O[C@H]3n1ccc(=O)n2ccnc12` (single isomer, unassigned) [Example 12] returned an EC50 at full-length HAQ STING of 156 nM. Moreover, in assay [1] (setting [2]), the activation at 30 µM turned out to be 123%.
With `Nc1ncnc2c1ncn2[C@@H]1S[C@@H]2CO[P@@](=O)(S)O[C@@H]3[C@H](O)[C@@H](CO[P@@](=O)(S)O[C@H]2[C@H]1O)O[C@H]3n1ccc(=O)n2ccnc12` (single isomer, unassigned) [Example 10], on full-length HAQ STING, it took 3 nM to reach a half-maximal effect (EC50). The activation at 30 µM in assay [1] (setting [2]) turned out to be 183%.
`Nc1ncnc2c1ncn2[C@@H]1O[C@@]23CO[C@@H]1[C@@H]2OP(=O)(S)OC[C@H]1O[C@@H](n2cnc4c(=O)n5cc[nH]c5nc42)[C@H](OP(=O)(S)OC3)[C@@H]1F` (single isomer, unassigned) [Example 27] showed an EC50 on full-length HAQ STING of 61 nM. The “% Effect at 30 μM relative to 2′3′-cGAMP” value in assay [1] (setting [3]) turned out to be 143%.
The compound `Nc1ncnn2c([C@H]3C[C@@H]4O[P@](=O)(S)OC[C@H]5O[C@@H](n6ccc(=O)n7ccnc67)[C@H](O[P@@](=O)(S)OC[C@H]4O3)[C@@H]5O)cnc12` (single isomer, unassigned) [Example 9] yielded an EC50 at full-length HAQ STING of 23 nM. Further, the activation at 30 µM in assay [1] (setting [2]) is 80%.
In turn, `Nc1ncnc2c1ncn2[C@@H]1O[C@@]23CO[C@@H]1[C@@H]2OP(=O)(S)OC[C@H]1O[C@@H](n2cnc4c(=O)n5cc[nH]c5nc42)[C@H](OP(=O)(S)OC3)[C@@H]1F` (single isomer, unassigned) [Example 26] had an EC50 on full-length HAQ STING of 19 nM. In assay [1] (setting [3]), the “% Effect at 30 μM relative to 2′3′-cGAMP” value is on record as 153%.
In the case of `Nc1ncnc2c1nnn2[C@@H]1O[C@@H]2COP(=O)(S)O[C@@H]3C[C@@H](COP(=O)(S)O[C@H]2[C@@H]1F)O[C@H]3n1cnc2c(=O)n3cc[nH]c3nc21` (stereo partly drawn) [Example 28, 3-[(5S,7R,8R,12aR,14R,15S,15aR)-14-(7-amino-3H-[1,2,3]triazolo[4,5-d]pyrimidin-3-yl)-15-fluoro-2,10-dioxido-2,10-disulfanyloctahydro-12H-5,8-methanofuro[3,2-l] [1,3,6,9,11,2,10]pentaoxadiphosphacyclotetradecin-7-yl]-3,5-dihydro-9H-imidazo[1,2-a]purin-9-one], the EC50 at full-length HAQ STING amounted to 41 nM. In addition, the activation at 30 µM in assay [1] (setting [2]) was found to be 143%.
`Nc1ncnc2c1ncn2[C@@H]1O[C@@H]2COP(=O)(S)O[C@H]3[C@H](F)[C@H](n4ccc5c(=O)[nH]cnc54)O[C@@H]3COP(=O)(S)O[C@@H]1C2` (single isomer, unassigned) [Example 47] had an EC50 at full-length HAQ STING of 460 nM. Moreover, the “% Effect at 30 μM relative to 2′3′-cGAMP” value in assay [1] (setting [3]) is 13%.
For the compound `Nc1nc2c(ncn2[C@@H]2O[C@@H]3COP(=O)(S)O[C@H]4C[C@H](n5ccc6c(=O)[nH]cnc65)O[C@@H]4COP(=O)(S)O[C@@H]2[C@@H]3F)c(=O)[nH]1` (single isomer, unassigned) [Example 35], at full-length HAQ STING, the EC50 was 11 nM. In assay [1], the “% Effect at 30 μM relative to 2′3′-cGAMP” value stood at 98%.
On full-length HAQ STING, `O=c1ccn([C@@H]2O[C@@H]3COP(=O)(S)O[C@@H]4[C@H](O)[C@@H](COP(=O)(S)O[C@H]3[C@H]2O)O[C@H]4n2ccc(=O)n3ccnc23)c2nccn12` (stereo partly drawn) [Example 30, 8,8′-[(5R,7R,8R,12aR,14R,15R,15aS,16R)-15,16-dihydroxy-2,10-dioxido-2,10-disulfanyloctahydro-12H-5,8-methanofuro[3,2-l][1,3,6,9,11,2,10]pentaoxadiphosphacyclo-tetradecine-7,14-diyl]bisimidazo[1,2-a]pyrimidin-5(8H)-one] registered an EC50 of 37 nM. Besides, in assay [1] (THP-1, THP1 cells, 5 h incubation, compound at 30 μM, 30 uM cGAMP = 100%), the activation at 30 µM amounted to 127%.
For the compound `Nc1cc2c(ncn2[C@@H]2O[C@@H]3COP(=O)(S)O[C@H]4[C@H](F)[C@H](n5ccc6c(=O)[nH]cnc65)O[C@@H]4COP(=O)(S)O[C@@H]2[C@@H]3F)c(=O)[nH]1` (stereo partly drawn) [Example 51, 6-amino-1-[(5R,7R,8S,12aR,14R,15S,15aR,16R)-15,16-difluoro-2,10-dioxido-14-(4-oxo-3,4-dihydro-7H-pyrrolo[2,3-d]pyrimidin-7-yl)-2,10-disulfanyl-octahydro-12H-5,8-methanofuro[3,2-l] [1,3,6,9,11,2,10]pentaoxadiphosphacyclotetradecin-7-yl]-1,5-dihydro-4H-imidazo[4,5-c]pyridin-4-one], it took 13 nM to reach a half-maximal effect at full-length HAQ STING (EC50). In assay [1] (setting [2]), the activation at 30 µM amounted to 113%.

Values taken from patent US11685761B2, “Cyclic di-nucleotide compounds as sting agonists” (Merck Sharp & Dohme Corp., priority 2017, dated 2023).
